Here are results for 25 molecules from patent publication US10568884B2, “Compounds and compositions as protein kinase inhibitors” (Array BioPharma, Inc., priority 2009, dated 2020).

In data set [1] the test system is A375 melanoma cell line (B-Raf V600E). Kind of data set: A375 Cellular Proliferation Assay (A375 CP). The format is cell-based. The conditions noted are these: Homo sapiens, A-375, 48 h; A375-luc cells, 2 days; read-out: A375 CP IC50. How it is done:
A375-luc cells engineered to express luciferase are plated to 384-well white clear bottom plates as 1,500 cells/50 μl/well in DMEM containing 10% FBS. Compounds of the invention dissolved in 100% DMSO at appropriate concentrations are transferred to the cells by a robotic Pin Tool (100 nl). The cells are incubated for 2 days at […], then 25 μl of BrightGlo™ is added to each well and the plates are read by luminescence.

Data set [2] is described as follows: Liver Microsomal Clearance Assay (human). The format is in vitro ADME. The conditions noted are these: extraction ratio, human liver microsomes, 1 μM compound. How it is done:
(§1) The in vitro microsomal clearance assay is designed to assess potential risks associated with hepatic metabolic stability of compounds. The test compound (1 μM) was incubated with liver microsomes (0.5 mg/mL) from different species (mouse, rat, monkey, dog and human) and NADPH (1 mM) in 100 mM potassium phosphate buffer at 37° C. At specific reaction time points (0, 5, 10 and 30 minutes), reaction aliquots were removed and reactions were terminated by addition of ice cold acetonitrile containing mass spectrometry internal standard. The samples were centrifuged and the supernatants were analyzed by LC-MS/MS. In vitro metabolic half-life (t1/2, min) and intrinsic clearance (CLint, μL/min/mg) are based on the rate and extent of metabolism of the test compound as determined by the disappearance of the parent compound from the reaction mixture. These values may be scaled to predict hepatic metabolic clearance rate (CLh, mL/min/kg) and extraction ratio (ER, expressed as a ratio of the predicted hepatic metabolic clearance to hepatic blood flow in that species). In general, compounds with high predictedCLint or ER in vitro are considered to be at high risk for exposure-limiting metabolism in vivo.
In general terms: Liver microsomes are a subcellular fraction often used to study metabolism.

Data set [3] can be described thus: Liver Microsomal Clearance Assay (mouse). The conditions noted are these: extraction ratio, mouse liver microsomes, 1 μM compound. The format is in vitro ADME. As to the method: as §1

As a reminder, the IC50 is the concentration needed to halve the response being measured. Regarding `CC(C)n1cc(-c2ccnc(N)n2)c(-c2cc(Cl)cc(NS(C)(=O)=O)c2F)n1` [Compound 30, N-{3-[4-(2-aminopyrimidin-4-yl)-1-(propan-2-yl)-1H-pyrazol-3-yl]-5-chloro-2-fluorophenyl}methanesulfonamide], the IC50 in data set [1] was found to be 69 nM.

Regarding `COC(=O)N[C@@H](C)CNc1nccc(-c2cn(C(C)C)nc2-c2cc(F)cc(NS(C)(=O)=O)c2F)n1` [Compound 10, methyl N-[(2S)-1-({4-[3-(2,5-difluoro-3-methanesulfonamidophenyl)-1-(propan-2-yl)-1H-pyrazol-4-yl]pyrimidin-2-yl]amino)propan-2-yl]carbamate], the IC50 in data set [1] amounted to 3 nM.

In the case of `CCS(=O)(=O)Nc1c(F)ccc(-c2nn(C(C)C)cc2-c2ccnc(NC[C@H](C)NC(=O)OC)n2)c1F` [Compound 26, methyl N-[(2S)-1-({4-[3-(3-ethanesulfonamido-2,4-difluorophenyl)-1-(propan-2-yl)-1H-pyrazol-4-yl]pyrimidin-2-yl}amino)propan-2-yl]carbamate], the IC50 in data set [1] was 14 nM.

Regarding `COC(=O)N[C@@H](C)CNc1nccc(-c2cn(C3CCCCO3)nc2-c2cc(Cl)cc(NS(C)(=O)=O)c2F)n1` (stereo partly drawn) [Compound 33, Methyl N-[(2S)-1-({4-(3-(5-chloro-2-fluoro-3-methanesulfonamidophenyl)-1-(oxan-2-yl)-1H-pyrazol-4-yl]pyrimidin-2-yl}amino)propan-2-yl]carbamate], the IC50 in data set [1] is 7 nM.

On to `CC(C)n1cc(-c2ccnc(NCCN(C)C)n2)c(-c2cc(Cl)cc(NS(C)(=O)=O)c2F)n1` [Compound 28, N-{5-chloro-3-[4-(2-{[2-(dimethylamino)ethyl]amino}pyrimidin-4-yl)-1-(propan-2-yl)-1H-pyrazol-3-yl]-2-fluorophenyl}methanesulfonamide], for which the IC50 in data set [1] came out at 550 nM.

As for `COC(=O)N[C@@H](C)CNc1nccc(-c2cn(C(C)C)nc2-c2cc(Cl)cc(NS(=O)(=O)C3CC3)c2F)n1` [Compound 25, methyl N-[(2S)-1-({4-[3-(5-chloro-3-cyclopropanesulfonamido-2-fluorophenyl)-1-(propan-2-yl)-1H-pyrazol-4-yl]pyrimidin-2-yl}amino)propan-2-yl]carbamate], the IC50 in data set [1] is 2 nM.

For `COC(=O)N[C@@H](C)CNc1nccc(-c2cn(C(C)C)nc2-c2c(F)ccc(NS(C)(=O)=O)c2F)n1` [Compound 6, methyl N-[(2S)-1-({4-[3-(2,6-difluoro-3-methanesulfonamidophenyl)-1-(propan-2-yl)-1H-pyrazol-4-yl]pyrimidin-2-yl]amino)propan-2-yl]carbamate], the IC50 in data set [1] stood at 46 nM. In addition, the “ER Human” value in data set [2] was found to be 0.69.

As for `COC(=O)N[C@@H](C)CNc1nccc(-c2cn(C(C)C)nc2-c2ccnc(NS(C)(=O)=O)c2F)n1` [Compound 16, methyl N-[(2S)-1-({4-[3-(3-fluoro-2-methanesulfonamidopyridin-4-yl)-1-(propan-2-yl)-1H-pyrazol-4-yl]pyrimidin-2-yl}amino)propan-2-yl]carbamate], the IC50 in data set [1] came out at 1400 nM.

Consider `COC(=O)N[C@@H](C)CNc1nccc(-c2cn(C(C)C)nc2-c2ccc(F)c(NS(C)(=O)=O)c2F)n1` [Compound 19, methyl N-[(2S)-1-({4-[3-(2,4-difluoro-3-methanesulfonamidophenyl)-1-(propan-2-yl)-1H-pyrazol-4-yl]pyrimidin-2-yl}amino)propan-2-yl]carbamate], for which the IC50 in data set [1] amounted to 93 nM.

Consider `CCCS(=O)(=O)Nc1cc(Cl)cc(-c2nn(C(C)C)cc2-c2ccnc(NC[C@H](C)NC(=O)OC)n2)c1F` [Compound 1, Methyl N-[(2S)-1-[(4-{3-[5-chloro-2-fluoro-3-(propane-1-sulfonamido)phenyl]-1-(propan-2-yl)-1H-pyrazol-4-yl]pyrimidin-2-yl)amino]propan-2-yl]carbamate], for which the IC50 in data set [1] came out at 2 nM. Also, in data set [2], the “ER Human” value turned out to be 0.66. Further, the “ER Mouse” value in data set [3] was determined as 0.79.

As to `COC(=O)N[C@@H](C)CNc1nccc(-c2cn(C(C)C)nc2-c2cc(F)c(F)c(NS(C)(=O)=O)c2F)n1` [Compound 21, methyl N-[(2S)-1-({4-[1-(propan-2-yl)-3-(2,4,5-trifluoro-3-methanesulfonamidophenyl)-1H-pyrazol-4-yl]pyrimidin-2-yl}amino)propan-2-yl]carbamate], the IC50 in data set [1] was 45 nM.

Regarding `COC(=O)N[C@@H](C)CNc1nccc(-c2cn(C(C)C)nc2-c2cc(F)cc(NS(C)(=O)=O)c2Cl)n1` [Compound 15, Methyl N-[(2S)-1-({4-[3-(2-chloro-5-fluoro-3-methanesulfonamidophenyl)-1-(propan-2-yl)-1H-pyrazol-4-yl]pyrimidin-2-yl}amino)propan-2-yl]carbamate], the IC50 in data set [1] is 4 nM.

On to `CCS(=O)(=O)Nc1c(F)c(F)cc(-c2nn(C(C)C)cc2-c2ccnc(NC[C@H](C)NC(=O)OC)n2)c1Cl` [Compound 18, methyl N-[(2S)-1-({4-[3-(2-chloro-3-ethanesulfonamido-4,5-difluorophenyl)-1-(propan-2-yl)-1H-pyrazol-4-yl]pyrimidin-2-yl}amino)propan-2-yl]carbamate], for which, in data set [1], the IC50 was 12 nM.

For the molecule `CCn1cc(-c2ccnc(NC[C@H](C)NC(=O)OC)n2)c(-c2cc(Cl)cc(NS(C)(=O)=O)c2F)n1` [Compound 11, methyl N-[(2S)-1-({4-[3-(5-chloro-2-fluoro-3-methanesulfonamidophenyl)-1-ethyl-1H-pyrazol-4-yl]pyrimidin-2-yl}amino)propan-2-yl]carbamate], the IC50 in data set [1] is 3 nM.

As to `COC(=O)N[C@H](C)CNc1nccc(-c2cn(C(C)C)nc2-c2cc(Cl)cc(NS(C)(=O)=O)c2F)n1` [Compound 20, methyl N-[(2R)-1-({4-[3-(5-chloro-2-fluoro-3-methanesulfonamidophenyl)-1-(propan-2-yl)-1H-pyrazol-4-yl]pyrimidin-2-yl}amino)propan-2-yl]carbamate], the IC50 in data set [1] was 7 nM.

On to `COC(=O)N[C@@H](C)CNc1nccc(-c2cn(C(C)C)nc2-c2cc(Cl)cc(NS(C)(=O)=O)c2Cl)n1` [Compound 22, methyl N-[(2S)-1-({4-[3-(2,5-dichloro-3-methanesulfonamidophenyl)-1-(propan-2-yl)-1H-pyrazol-4-yl]pyrimidin-2-yl}amino)propan-2-yl]carbamate], for which the IC50 in data set [1] is 6 nM.

Turning to `COC(=O)N[C@@H](C)CNc1nccc(-c2c[nH]nc2-c2cc(Cl)cc(NS(C)(=O)=O)c2F)n1` [Compound 31], in data set [1], the IC50 worked out at 180 nM.

`CC(C)n1cc(-c2ccnc(NCCC#N)n2)c(-c2cc(Cl)cc(NS(C)(=O)=O)c2F)n1` [Compound 17, N-[5-chloro-3-(4-{2-[(2-cyanoethyl)amino]pyrimidin-4-yl}-1-(propan-2-yl)-1H-pyrazol-3-yl)-2-fluorophenyl]methanesulfonamide]: in data set [1], the 50% inhibitory concentration (IC50) turned out to be 2 nM.

Consider `COC(=O)N[C@@H](C)CNc1nccc(-c2cn(C(C)C)nc2-c2cc(C)cc(NS(C)(=O)=O)c2F)n1` [Compound 12, methyl N-[(2S)-1-({4-[3-(2-fluoro-3-methanesulfonamido-5-methylphenyl)-1-(propan-2-yl)-1H-pyrazol-4-yl]pyrimidin-2-yl]amino)propan-2-yl]carbamate], for which the IC50 in data set [1] worked out at 4 nM.

Turning to `COC(=O)N[C@@H](C)CNc1nccc(-c2cn(C(C)C)nc2-c2cc(Cl)cc(NS(C)(=O)=O)c2)n1` [Compound 2, methyl N-[(2S)-1-({4-[3-(3-chloro-5-methanesulfonamidophenyl)-1-(propan-2-yl)-1H-pyrazol-4-yl]pyrimidin-2-yl}amino)propan-2-yl]carbamate], the IC50 in data set [1] stood at 18 nM.

For the molecule `COC(=O)N[C@@H](C)CNc1nccc(-c2cn(C(C)C)nc2-c2ccnc(NS(C)(=O)=O)c2Cl)n1` [Compound 14, methyl N-[(2S)-1-({4-[3-(3-chloro-2-methanesulfonamidopyridin-4-yl)-1-(propan-2-yl)-1H-pyrazol-4-yl]pyrimidin-2-yl}amino)propan-2-yl]carbamate], in data set [1], the IC50 is 79 nM.

Consider `COC(=O)N[C@@H](C)CNc1nccc(-c2cn(C(C)C)nc2-c2cccc(NS(C)(=O)=O)c2)n1` [Compound 23, methyl N-[(2S)-1-({4-[3-(3-methanesulfonamidophenyl)-1-(propan-2-yl)-1H-pyrazol-4-yl]pyrimidin-2-yl}amino)propan-2-yl]carbamate], for which, in data set [1], the IC50 is 1150 nM.

In the case of `COC(=O)N[C@@H](C)CNc1nccc(-c2cn(C(C)C)nc2-c2cccc(NS(=O)(=O)CCC(F)(F)F)c2F)n1` [Compound 8], in data set [1], the IC50 was determined as 27 nM.

With `CCCS(=O)(=O)Nc1cc(Cl)cc(-c2nn(C(C)C)cc2-c2ccnc(NC[C@H](C)NC(=O)OC)n2)c1` [Compound 5, methyl N-[(2S)-1-[(4-{3-[3-chloro-5-(propane-1-sulfonamido)phenyl]-1-(propan-2-yl)-1H-pyrazol-4-yl]pyrimidin-2-yl)amino]propan-2-yl]carbamate], the IC50 in data set [1] was determined as 1 nM.

With `CCCS(=O)(=O)Nc1c(F)ccc(-c2nn(C(C)C)cc2-c2ccnc(NC[C@H](C)NC(=O)OC)n2)c1F` [Compound 34], the IC50 in data set [1] was found to be 13 nM.
